In patent publication US12522594B2, “2-heteroaryl-3-oxo-2,3-dihydropyridazine-4-carboxamides for the treatment of cancer” (Deutsches Krebsforschungszentrum, priority 2017, dated 2026):
pIC50: −log10 of the molar value. Values joined by “and” are separate entries in the source; they are usually repeats but may differ in a detail not shown here. Equal values may be shown once.

Columns and labels:
AHR [1] = target: T1, AHR (Homo sapiens, UniProt P35869); test: In vitro assay 3: AHR-regulated CYP1A1 expression in human cell line (U937, qPCR, KA stimulation); type: cell-based; conditions: U937 cells, 200 uM KA, 6 hours, CYP1A1 expression by qPCR; read-out: Assay 3: Hum CYP1A1 Antagonism IC50
T1 sequence (P35869 11-848): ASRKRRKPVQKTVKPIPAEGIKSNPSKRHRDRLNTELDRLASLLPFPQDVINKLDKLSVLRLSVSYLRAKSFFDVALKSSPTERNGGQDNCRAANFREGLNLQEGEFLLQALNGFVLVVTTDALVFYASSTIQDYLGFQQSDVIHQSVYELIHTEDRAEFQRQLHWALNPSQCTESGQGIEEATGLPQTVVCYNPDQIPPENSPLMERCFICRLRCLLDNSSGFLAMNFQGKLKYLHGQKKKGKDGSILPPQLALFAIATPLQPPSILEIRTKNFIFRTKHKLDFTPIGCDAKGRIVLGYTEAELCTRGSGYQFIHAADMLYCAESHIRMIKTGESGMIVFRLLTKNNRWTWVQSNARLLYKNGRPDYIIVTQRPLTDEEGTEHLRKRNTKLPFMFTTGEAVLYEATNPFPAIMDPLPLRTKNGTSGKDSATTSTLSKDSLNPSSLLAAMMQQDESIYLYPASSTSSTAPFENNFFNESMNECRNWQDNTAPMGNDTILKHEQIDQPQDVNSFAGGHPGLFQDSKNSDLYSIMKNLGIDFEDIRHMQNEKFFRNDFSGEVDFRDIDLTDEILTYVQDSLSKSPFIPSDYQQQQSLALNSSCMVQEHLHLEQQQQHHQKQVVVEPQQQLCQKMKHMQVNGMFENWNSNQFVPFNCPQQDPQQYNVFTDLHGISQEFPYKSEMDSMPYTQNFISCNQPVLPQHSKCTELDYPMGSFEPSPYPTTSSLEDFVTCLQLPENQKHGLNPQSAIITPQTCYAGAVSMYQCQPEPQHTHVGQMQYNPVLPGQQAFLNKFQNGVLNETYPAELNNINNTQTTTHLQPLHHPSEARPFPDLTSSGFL
In short: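 U937 human monocytic cells were stimulated with 200 uM KA for 6 h, with or without compound at eight concentrations from 1 nM to 3 uM, in duplicate. CYP1A1 mRNA was quantified by Taqman qPCR as fold expression normalised to HPRT. Unstimulated cells served as negative control.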

human monocytes = test: In vitro assay 4: rescue of TNFα production from human primary monocytes (LPS + KA); type: cell-based; conditions: one value per donor; for Individual Donors Conc of highest rescue: concentration (of 1, 0.3, 0.1 uM tested) at which highest TNFα rescue was observed; for Individual Donors % rescue TNFα normalised to ref cmpd: human monocytes, 10 ng/mL LPS + 200 uM KA, 18 hours, highest percent rescue relative to highest rescue with GNF-351
Protocol: In Vitro Assay 4: Rescue of TNFα Production from Human Primary Monocytes
The ability of the substances to enhance immune cell activity was determined. The substances were tested for their capacity to reverse KA-induced inhibition of TNFα production by LPS-stimulated human monocytes. Human monocytes were purified by negative selection from donor PBMCs using Miltenyi beads and seeded at 2×10^5 cells/well in complete growth medium (RPMI 1640, 10% FCS). Monocytes were incubated with 10 ng/mL LPS (O127:B8, #L4516, Sigma) and 200 uM KA (#3375, Sigma) and substances were added at concentrations of 1 uM, 0.3 uM and 0.1 uM and cultured for 18 hours. LPS alone served as the positive control. TNFα production in the supernatant was measured by Meso Scale Discovery immunoassay and the ability of the substances to rescue TNFα production was calculated as a percentage of LPS stimulation and KA-induced inhibition and normalized to the donor-specific response with the reference AHR antagonist compound GNF-351 (Smith et al., J Pharmacol Exp Ther, 2011, 338(1):318-27).

AHR [2] = target: T1, AHR; test: In vitro assay 1: antagonism in human cell line (transactivation assay, U87 cells prestimulated with kynurenic acid, DRE firefly luciferase reporter); type: cell-based; parameters: host or cells: U87 glioblastoma cells, stably transfected with DRE firefly luciferase and renilla reporter constructs; conditions: 150 uM kynurenic acid, 20 hours, read-out: Assay 1: AHR-luc Hum Antagonism IC50
In short: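 Antagonism measured after kynurenic acid prestimulation in U87 cells that express AHR endogenously and stably harbor a firefly luciferase gene under DRE control plus a constitutive renilla construct. Positive and negative controls served for normalization.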

AHR [3] = target: T1, AHR; test: In vitro assay 2: agonism in human cell line (transactivation assay, U87 cells, DRE firefly luciferase reporter); type: cell-based; parameters: host or cells: U87 glioblastoma cells, stably transfected with DRE firefly luciferase and renilla reporter constructs; conditions: no kynurenic acid, 20 hours, read-out: Assay 2: AHR-luc Hum Agonism IC50
In short: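 Agonist readout: DRE firefly luciferase, with constitutive renilla reporter, in stably transfected U87 cells expressing AHR endogenously. Normalization used positive control (300 uM kynurenic acid) and negative control.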

B16F10-OVA cells = test: In vivo assay: efficacy of an example compound and a CTLA4 axis antagonist, B16F10-OVA tumor in C57/BL6J mice; parameters: species or system mouse; conditions: tumor volume treatment/control; single agent plus vehicle or isotype; AhR antagonist 30 mg/kg QD p.o.; aCTLA4 1 mg/kg q3d i.p.
Protocol: In Vivo Assay: Efficacy of Compositions Comprising an Example Compound and a CTLA4 Axis Antagonist
Animals are ordered from Charles River Sulzfeld, Germany and assigned to the study at the age of 8 weeks. Animal husbandry, feeding and health conditions are according to animal welfare guidelines. B16F10-OVA cells are B16F10 mouse melanoma cells that were virally transduced to express ovalbumin. B16F10-OVA cells were cultivated with RPMI 1640 with 10% FCS+2.5 μg/ml blasticidin and splitted at least 3 times before inoculation. The antibiotic blasticidin is removed 1 passage before inoculation. Female C57/BL6J mice were inoculated with 10000 B16F10-OVA tumor cells in 50% medium/50% matrigel subcutaneously in the flank. After 7 days the animals were randomized and therapeutic treatment started on day 8. The AhR antagonists were dissolved in Ethanol/Solutol/Water (10/40/50) and given at 30 mg/kg, QD, p.o. The anti-CTLA4 antibody was dosed at 1 mg/kg, q3d, i.p. The anti-CTLA4 antibody is mouse-specific with syrian hamster IgG1 isotype (Clone: 9H10 (anti mouse CTLA4), Fa. BioXCell BE0131). […]
Tumor size was measured using calipers determining length (a) and width (b). Tumor volume was calculated according to: […]
Based on tumor volume efficacy was calculated dividing tumor volume of the respective treatment group by tumor volume of the control group (T/C).

| SMILES | pIC50 (AHR [1]) | pIC50 (AHR [2]) | pIC50 (AHR [3]) | Individual Donors Conc of highest rescue (human monocytes) | Individual Donors % rescue TNFα normalised to ref cmpd (human monocytes) | T/C (B16F10-OVA cells) |
| --- | --- | --- | --- | --- | --- | --- |
| O=C(N[C@@H]1CCC[C@@H]1O)c1cc(-c2ccc(Cl)cc2)nn(-c2cccnc2)c1=O [Example 138, 6-(4-Chlorophenyl)-N-[(1R,2S)-2-hydroxycyclopentyl]-3-oxo-2-(pyridin-3-yl)-2,3-dihydropyridazine-4-carboxamide] | 8.12 | 8.04 | < 4.70 | 0.1 µM and 0.3 µM | 49% and 84% | – |
| COCC(O)CNC(=O)c1cc(-c2ccc(Cl)cc2)nn(-c2cnn(C)c2)c1=O (single isomer, unassigned; (-)) [Example 25, (−)-6-(4-Chlorophenyl)-11-(2-hydroxy-3-methoxypropyl)-2-(1-methyl-1H-pyrazol-4-yl)-3-oxo-2,3-dihydropyridazine-4-carboxamide] | 7.04 | 7.17 | < 4.70 | 1 µM | 46% and 53% | – |
| Cn1cc(-n2nc(-c3ccc(OC(F)(F)F)cc3)cc(C(=O)N[C@H](CO)C(F)(F)F)c2=O)cn1 [Example 47, 2-(1-Methyl-1H-pyrazol-4-yl)-3-oxo-N-[(2R)-1,1,1-trifluoro-3-hydroxypropan-2-yl]-6-[4-(trifluoromethoxy)phenyl]-2,3-dihydropyridazine-4-carboxamide] | 8.78 | 8.82 | < 4.70 | 1 µM | 68% and 64% | – |
| Cn1cc(-n2nc(-c3ccc(Cl)cc3)cc(C(=O)NCC(O)C(F)(F)F)c2=O)cn1 (stereo not drawn) [Example 18, 6-(4-Chlorophenyl)-2-(1-methyl-1H-pyrazol-4-yl)-3-oxo-N-(3,3,3-trifluoro-2-hydroxypropyl)-2,3-dihydropyridazine-4-carboxamide] | 7.95 | 7.85 | < 4.70 | 1 μM (2×) and 0.3 μM (2×) | 83% and 73% and 76% and 105% | – |
| Cn1cc(-n2nc(-c3ccc(Cl)cc3)cc(C(=O)NCC(O)C(F)F)c2=O)cn1 (single isomer, unassigned; (-)) [Example 22, (−)-6-(4-Chlorophenyl)-N-(3,3-difluoro-2-hydroxypropyl)-2-(1-methyl-1H-pyrazol-4-yl)-3-oxo-2,3-dihydropyridazine-4-carboxamide] | 7.95 | 7.70 | < 4.70 | 1 µM | 66% and 71% | – |
| CCC(CO)NC(=O)c1cc(-c2ccc(C)cc2)nn(-c2cnn(C)c2)c1=O (single isomer, unassigned) [Example 5, N-(1-Hydroxybutan-2-yl)-6-(4-methylphenyl)-2-(1-methyl-1H-pyrazol-4-yl)-3-oxo-2,3-dihydropyridazine-4-carboxamide] | 8.46 | 8.22 | < 4.70 | 1 µM | 67% and 99% and 61% | – |

Continued, in another order:

| pIC50 (AHR [1]) | pIC50 (AHR [2]) | pIC50 (AHR [3]) | SMILES | Individual Donors Conc of highest rescue (human monocytes) | Individual Donors % rescue TNFα normalised to ref cmpd (human monocytes) | T/C (B16F10-OVA cells) |
| --- | --- | --- | --- | --- | --- | --- |
| 7.09 | 7.40 | < 4.70 | O=C(NCC(O)C(F)F)c1cc(-c2ccc(Cl)cc2)nn(-c2cccnc2)c1=O (racemic) [Example 79, 6-(4-Chlorophenyl)-N-[(2RS)-3,3-difluoro-2-hydroxypropyl]-3-oxo-2-(pyridin-3-yl)-2,3-dihydropyridazine-4-carboxamide] | 0.3 µM and 0.1 µM | 76% and 63% | – |
| 8.14 | 8.21 | < 4.70 | O=C(NC[C@H](O)C(F)(F)F)c1cc(-c2ccc(OC(F)(F)F)cc2)nn(-c2cccnc2)c1=O [Example 131, 3-Oxo-2-(pyridin-3-yl)-N-[(2S)-3,3,3-trifluoro-2-hydroxypropyl]-6-[4-(trifluoromethoxy)phenyl]-2,3-dihydropyridazine-4-carboxamide] | – | – | 1.05 |
| 7.73 | 7.63 | < 4.70 | Cc1ccc(-c2cc(C(=O)NCC(O)C(F)(F)F)c(=O)n(-c3cnn(C)c3)n2)cc1 (single isomer, unassigned; enantiomer 2) [Example 12, (+)-6-(4-Methylphenyl)-2-(1-methyl-1H-pyrazol-4-yl)-3-oxo-N-(3,3,3-trifluoro-2-hydroxypropyl)-2,3-dihydropyridazine-4-carboxamide, Enantiomer 2] | 0.1 μM (2×) and 1 μM and 0.3 μM | 74% and 122% and 213% and 109% | – |
| 7.80 | 7.72 | < 4.70 | Cc1ccc(-c2cc(C(=O)N[C@@H](C)CO)c(=O)n(-c3cnn(C)c3)n2)cc1 [Example 8, N-[(2S)-1-Hydroxypropan-2-yl]-6-(4-methylphenyl)-2-(1-methyl-1H-pyrazol-4-yl)-3-oxo-2,3-dihydropyridazine-4-carboxamide] | 1 μM (4×) and 0.1 μM | 99% and 55% and 104% and 109% and 36% | – |
| 8.60 | 8.43 | < 4.70 | CC(C)[C@@H](CO)NC(=O)c1cc(-c2ccc(Cl)cc2)nn(-c2cnn(C)c2)c1=O [Example 16, 6-(4-Chlorophenyl)-N-[(2S)-1-hydroxy-3-methylbutan-2-yl]-2-(1-methyl-1H-pyrazol-4-yl)-3-oxo-2,3-dihydropyridazine-4-carboxamide] | 1 µM | 249% and 165% | – |
